# ChEMBL document CHEMBL1697731, “Cheminformatics analysis of assertions mined from literature that describe drug-induced liver injury in different species” (Chem Res Toxicol, 2010)
# Columns and labels:
# Hepatotoxicity [1] = experiment: Literature-mined compound from Fourches et al multi-species drug-induced liver injury (DILI) dataset, effect in non-rodents
# Hepatotoxicity [2] = experiment: Literature-mined compound from Fourches et al multi-species drug-induced liver injury (DILI) dataset, effect in humans; details: human
# Hepatotoxicity [3] = experiment: Literature-mined compound from Fourches et al multi-species drug-induced liver injury (DILI) dataset, effect in rodents; details: rodentia
Compound,Hepatotoxicity (Hepatotoxicity [1]),Hepatotoxicity (Hepatotoxicity [2]),Hepatotoxicity (Hepatotoxicity [3]),Hepatotoxicity (Hepatotoxicity [1]; Liver),Hepatotoxicity (Hepatotoxicity [2]; Liver),Hepatotoxicity (Hepatotoxicity [3]; Liver)
Nc1cc(N2CCCCC2)nc(N)[n+]1[O-] [MINOXIDIL],no drug-induced liver injury reported,drug-induced liver injury reported,drug-induced liver injury reported,,,
Clc1ccccc1CN1CCc2sccc2C1 [TICLOPIDINE],,,,no drug-induced liver injury reported,drug-induced liver injury reported,drug-induced liver injury reported
CC(C)C(=O)Nc1ccc([N+](=O)[O-])c(C(F)(F)F)c1 [FLUTAMIDE],no drug-induced liver injury reported,drug-induced liver injury reported,drug-induced liver injury reported,,,
CN1CCN(CCCN2c3ccccc3Sc3ccc(Cl)cc32)CC1 [PROCHLORPERAZINE],no drug-induced liver injury reported,drug-induced liver injury reported,no drug-induced liver injury reported,,,
CHOLESTYRAMINE,no drug-induced liver injury reported,drug-induced liver injury reported,drug-induced liver injury reported,,,
C#C[C@]1(O)C=C[C@H]2[C@@H]3CCC4=CC(=O)CC[C@@H]4[C@H]3CC[C@@]21CC [GESTODENE],no drug-induced liver injury reported,drug-induced liver injury reported,no drug-induced liver injury reported,,,
Cc1ccnc(NS(=O)(=O)c2ccc(N)cc2)n1 [SULFAMERAZINE],no drug-induced liver injury reported,no drug-induced liver injury reported,drug-induced liver injury reported,,,
Nc1ccc(C(=O)O)cc1 [AMINOBENZOIC ACID],no drug-induced liver injury reported,no drug-induced liver injury reported,drug-induced liver injury reported,,,
CCN(CC)Cc1cc(Nc2ccnc3cc(Cl)ccc23)ccc1O.Cl,,,,no drug-induced liver injury reported,drug-induced liver injury reported,drug-induced liver injury reported
CC(C)c1nc(N(C)S(C)(=O)=O)nc(-c2ccc(F)cc2)c1/C=C/[C@@H](O)C[C@@H](O)CC(=O)O [ROSUVASTATIN],no drug-induced liver injury reported,no drug-induced liver injury reported,drug-induced liver injury reported,,,
O=C(O)C(S)C(S)C(=O)O (stereo unspecified),no drug-induced liver injury reported,drug-induced liver injury reported,drug-induced liver injury reported,,,
CC(C)(C)C(=O)OCOP(=O)(COCCn1cnc2c(N)ncnc21)OCOC(=O)C(C)(C)C [ADEFOVIR DIPIVOXIL],no drug-induced liver injury reported,drug-induced liver injury reported,drug-induced liver injury reported,,,
C[C@]12CC[C@@H]3c4ccc(O)cc4CC[C@H]3[C@@H]1CCC2=O [ESTRONE],no drug-induced liver injury reported,drug-induced liver injury reported,drug-induced liver injury reported,,,
O=c1n(CCCN2CCN(c3cccc(Cl)c3)CC2)nc2ccccn12 [TRAZODONE],no drug-induced liver injury reported,drug-induced liver injury reported,no drug-induced liver injury reported,,,
COc1cc2c(c(OC)c1OC)-c1ccc(OC)c(=O)cc1[C@@H](NC(C)=O)CC2 [COLCHICINE],no drug-induced liver injury reported,drug-induced liver injury reported,drug-induced liver injury reported,,,
COc1ccccc1Oc1c(NS(=O)(=O)c2ccc(C(C)C)cn2)nc(-c2ccnc(-c3nnn[nH]3)c2)nc1OCCO [TEZOSENTAN],no drug-induced liver injury reported,no drug-induced liver injury reported,drug-induced liver injury reported,,,
CN1C(=O)CCS(=O)(=O)C1c1ccc(Cl)cc1 (stereo unspecified) [CHLORMEZANONE],no drug-induced liver injury reported,drug-induced liver injury reported,no drug-induced liver injury reported,,,
COc1cc(C)c(/C=C/C(C)=C/C=C/C(C)=C/C(=O)O)c(C)c1C [ACITRETIN],no drug-induced liver injury reported,drug-induced liver injury reported,drug-induced liver injury reported,,,
O=C1CC[C@@]2(O)[C@H]3Cc4ccc(O)c5c4[C@@]2(CCN3CC2CC2)[C@H]1O5 [NALTREXONE],no drug-induced liver injury reported,drug-induced liver injury reported,drug-induced liver injury reported,,,

Compound,Hepatotoxicity (Hepatotoxicity [1]),Hepatotoxicity (Hepatotoxicity [2]),Hepatotoxicity (Hepatotoxicity [3]),Hepatotoxicity (Hepatotoxicity [1]; Liver),Hepatotoxicity (Hepatotoxicity [2]; Liver),Hepatotoxicity (Hepatotoxicity [3]; Liver)
O=C(O)c1ccc(-n2nc(-c3ccccc3O)nc2-c2ccccc2O)cc1 [DEFERASIROX],no drug-induced liver injury reported,drug-induced liver injury reported,no drug-induced liver injury reported,,,
CC(=O)O[C@]1(C(C)=O)CC[C@H]2[C@@H]3C=C(Cl)C4=CC(=O)[C@@H]5C[C@@H]5[C@]4(C)[C@H]3CC[C@@]21C [CYPROTERONE ACETATE],no drug-induced liver injury reported,drug-induced liver injury reported,drug-induced liver injury reported,,,
O=C[C@H](O)[C@@H](O)[C@H](O)[C@H](O)CO[C@H]1O[C@H](CO[C@H]2O[C@H](CO)[C@@H](O)[C@H](O)[C@H]2O)[C@@H](O)[C@H](O)[C@H]1O [DEXTRAN],drug-induced liver injury reported,no drug-induced liver injury reported,drug-induced liver injury reported,,,
CO[C@H]1/C=C/O[C@@]2(C)Oc3c(C)c(O)c4c(c3C2=O)C2=NC3(CCN(CC(C)C)CC3)NC2=C(NC(=O)/C(C)=C\C=C\[C@H](C)[C@H](O)[C@@H](C)[C@@H](O)[C@@H](C)[C@H](OC(C)=O)[C@@H]1C)C4=O [RIFABUTIN],,,,no drug-induced liver injury reported,drug-induced liver injury reported,drug-induced liver injury reported
COc1ccc(-c2cc(=S)ss2)cc1 [ANETHOLTRITHION],no drug-induced liver injury reported,no drug-induced liver injury reported,drug-induced liver injury reported,,,
CCCCN1CCCCC1C(=O)Nc1c(C)cccc1C (stereo unspecified) [BUPIVACAINE],no drug-induced liver injury reported,no drug-induced liver injury reported,drug-induced liver injury reported,,,
Fc1ccc([C@@H]2CCNC[C@H]2COc2ccc3c(c2)OCO3)cc1 [PAROXETINE],no drug-induced liver injury reported,drug-induced liver injury reported,no drug-induced liver injury reported,,,
OC[C@H]1O[C@@H](n2cnc3c(O)ncnc32)[C@H](O)[C@@H]1O [INOSINE],no drug-induced liver injury reported,no drug-induced liver injury reported,drug-induced liver injury reported,,,
NC(=O)c1csc([C@@H]2O[C@H](CO)[C@@H](O)[C@H]2O)n1 [TIAZOFURIN],no drug-induced liver injury reported,no drug-induced liver injury reported,drug-induced liver injury reported,,,
CC1(C)S[C@@H]2[C@H](NC(=O)[C@H](N)c3ccccc3)C(=O)N2[C@H]1C(=O)O [AMPICILLIN],no drug-induced liver injury reported,drug-induced liver injury reported,drug-induced liver injury reported,,,
C#CCN(C)[C@H](C)Cc1ccccc1 [SELEGILINE],no drug-induced liver injury reported,drug-induced liver injury reported,no drug-induced liver injury reported,,,
CO[C@H]1C[C@@H]2CC[C@@H](C)[C@@](O)(O2)C(=O)C(=O)N2CCCC[C@H]2C(=O)O[C@H]([C@H](C)C[C@@H]2CC[C@@H](O)[C@H](OC)C2)CC(=O)[C@H](C)/C=C(\C)[C@@H](O)[C@@H](OC)C(=O)[C@H](C)C[C@H](C)/C=C/C=C/C=C/1C [SIROLIMUS],no drug-induced liver injury reported,drug-induced liver injury reported,drug-induced liver injury reported,,,
Cc1nc2n(c(=O)c1CCN1CCC(c3noc4cc(F)ccc34)CC1)CCCC2 [RISPERIDONE],no drug-induced liver injury reported,drug-induced liver injury reported,no drug-induced liver injury reported,,,
COC(c1ccccc1)(c1ccccc1)[C@H](Oc1nc(C)cc(C)n1)C(=O)O [AMBRISENTAN],drug-induced liver injury reported,no drug-induced liver injury reported,no drug-induced liver injury reported,,,
Nc1nc(O)c2ncn(COC(CO)CO)c2n1 [GANCICLOVIR],no drug-induced liver injury reported,drug-induced liver injury reported,no drug-induced liver injury reported,,,
CC1(C)NC(=O)N(c2ccc([N+](=O)[O-])c(C(F)(F)F)c2)C1=O [NILUTAMIDE],,,,no drug-induced liver injury reported,drug-induced liver injury reported,drug-induced liver injury reported
COCc1c(C(C)C)nc(C(C)C)c(/C=C/[C@@H](O)C[C@@H](O)CC(=O)[O-])c1-c1ccc(F)cc1.[Na+] [CERIVASTATIN SODIUM],drug-induced liver injury reported,no drug-induced liver injury reported,drug-induced liver injury reported,,,
O=c1cc[nH]c(=O)[nH]1 [URACIL],no drug-induced liver injury reported,drug-induced liver injury reported,drug-induced liver injury reported,,,
